From patent US7763615B2, “Ecteinascidin analogs for use as antitumour agents” (priority 2001, dated 2010)
Values after ≈ are worked out from the molar mass of the structure shown.

Legend:
[1] = s9, 60 min, 1 μM
physchem [2] = conditions: pH 7.4, aqueous buffer, Solubility Dulbecco's PBS pH 7.4
[3] = system: NRK-52E, normal rat kidney cells; conditions: 24 h
Description: (§2) In order to assess the cytotoxicity of the drugs to normal cells, we used 96 well plates plated at a density of 5000 cells per well (except for the FDC-P1 which were plated at 12,000 cells per well) with normal cell lines (ATCC, Table 1) maintained as per the directions of the ATCC: AML-12, normal mouse liver cells; NRK-52E, normal rat kidney cells; L8, normal rat skeletal muscle cells; FDC-P1, normal mouse myelogeous stem cells; and H9c2 (2-1), normal rat cardiac muscle cells. The cells in each plate were permitted to settle overnight before adding the test drug.
(§3) To each well (100 μl medium) 10 μl of drug in media was added at varying concentrations (1×10-10-0.01 mg/ml final concentration) and further incubated overnight at 37° C. with 5% CO2. After 24 h the following assays were performed. All experiments were repeated at least 3 times and were assayed in duplicate.
(§4) MTS assay (CellTiter 96 aqueous) was performed according to the manufacturer's (Promega) directions (for all cell types). Cell viability (mitochondrial activity) is determined via enzymatic conversion of the formazan substrate.

H-MEC-1 = experiment: Inhibition of cells growth by colorimetric assay (SRB), H-MEC-1; type: cell-based; conditions: Homo sapiens, HMEC-1, 48 h
Outline: (§1)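 SRB colorimetric growth assay: 5×10^3 cells/well, 18 h attachment, 48 h continuous compound exposure at 10–10^−8 μg/ml in DMSO/EtOH/PBS. TCA fixation, SRB stain, OD 490 nm; triplicate wells, GI, TGI and LC derived.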

SK-OV3 = experiment: Inhibition of cells growth by colorimetric assay (SRB), SK-OV3; type: cell-based
Outline: as §1

[4] = system: FDC-P1, normal mouse myelogeous stem cells; conditions: 24 h
(HEPG2) = conditions: human, 24 h, 30 μM
MEL-28 = experiment: cells; type: cell-based; conditions: Homo sapiens, SK-MEL-28, 48 h
Outline: as §1

PANC-1 = experiment: cells; type: cell-based; conditions: Homo sapiens, PANC-1, 48 h
Outline: as §1

DU145 = experiment: cells; type: cell-based; conditions: Homo sapiens, DU-145, 48 h
Outline: as §1

IGROV = experiment: cells; type: cell-based; conditions: Homo sapiens, 48 h
Outline: as §1

HT29 = experiment: cells; type: cell-based; conditions: Homo sapiens, HT-29, 48 h
Outline: as §1

LOVO-DOX = experiment: cells; type: cell-based; conditions: Homo sapiens, 48 h
Outline: as §1

IGROV-ET = experiment: cells; type: cell-based; conditions: Homo sapiens, 48 h
Outline: as §1

LOVO = experiment: cells; type: cell-based; conditions: Homo sapiens, LoVo, 48 h
Outline: as §1

K562 = experiment: cells; type: cell-based; conditions: Homo sapiens, K562, 48 h
Outline: as §1

A549 = experiment: cells; type: cell-based; conditions: Homo sapiens, A549, 48 h
Outline: as §1

LNCAP = experiment: cells; type: cell-based; conditions: Homo sapiens, LNCaP, 48 h
Outline: as §1

SK-BR3 = experiment: cells; type: cell-based; conditions: Homo sapiens, SK-BR-3, 48 h
Outline: as §1

[5] = system: AML-12, normal mouse liver cells; conditions: 24 h
[6] = system: L8, normal rat skeletal muscle cells; conditions: 24 h
Description: as §2, §3, §4

physchem [7] = conditions: pH 7.4, log D n-Octanol-Dulbecco's PBS pH 7.4
Description: The measurement of partition coefficient was evaluated based on a miniaturized shake-flask procedure. Buffer (Dulbecco's PBS, pH 7.40) was used as the aqueous phase. The tested compound was dissolved in DMSO, at the concentration of 100 μM. The final DMSO concentration (1%.) during the octanol-buffer partitioning are very low to avoid bias on the partitioning. The amount of compound in the buffer phase was determined by HPLC with photodiode array detection after an equilibration phase of 60 min. The amount of compound in the octanol phase is calculated by subtraction of the amount of compound in buffer from the total amount of compound, which is determined from a calibration sample.
Log D is calculated as the Log10 of the amount of compound in the octanol phase divided by the amount of compound in the buffer phase. The effective range of the log D microassay is approximately −0.5 to +4.5.

[8] = H-MEC-1, 48 hours exposure, SRB
[9] = LOVO-DOX, 48 hours exposure, SRB
[10] = IGROV-ET, 48 hours exposure, SRB

Compound: COc1c(C)cc2c(c1O)[C@@H]1C3[C@@H]4SC[C@]5(NCCc6c5[nH]c5c(C)cccc65)C(=O)COC[C@@H](c5c6c(c(C)c(OC(C)=O)c54)OCO6)N3[C@@H](O)[C@H](C2)N1C (some centres unmarked) [Compound 36]
- Human Liver S9 Metabolic Stability (% remaining) [1]: 2 % remaining
- solubility (physchem [2]): 26 µM (≈ 20.4 µg/mL)
- Kidney [3]: 3.56E−07
- GI50 (H-MEC-1; [8]): 84.3 nM
- IC (TGI) (H-MEC-1; [8]): 783 nM
- CC50 (H-MEC-1; read-out: LC50, H-MEC-1, 48 hours exposure, SRB): 13000 nM
- GI50 (SK-OV3; Homo sapiens, SK-OV-3, 48 h, SK-OV3, 48 hours exposure, SRB): 50.7 nM
- CC50 (SK-OV3; Homo sapiens, SK-OV-3, 48 h, read-out: LC50, SK-OV3, 48 hours exposure, SRB): 13000 nM
- TGI (SK-OV3; SK-OV3, 48 hours exposure, SRB): 2.05E−07 Molar
- Myelo [4]: 2.05E−07
- Cell Viability (% inhibition) ((HEPG2)): 33 % inhibition
- GI50 (MEL-28; MEL-28, 48 hours exposure, SRB): 2.16 nM
- IC (TGI) (MEL-28; MEL-28, 48 hours exposure, SRB): 5.23 nM
- CC50 (MEL-28; read-out: LC50, MEL-28, 48 hours exposure, SRB): 12.6 nM
- GI50 (PANC-1; PANC-1, 48 hours exposure, SRB): 42.1 nM
- IC (TGI) (PANC-1; PANC-1, 48 hours exposure, SRB): 104 nM
- CC50 (PANC-1; read-out: LC50, PANC-1, 48 hours exposure, SRB): 13000 nM
- GI50 (DU145; DU145, 48 hours exposure, SRB): 5.41 nM
- IC (TGI) (DU145; DU145, 48 hours exposure, SRB): 9.39 nM
- CC50 (DU145; read-out: LC50, DU145, 48 hours exposure, SRB): 13000 nM
- GI50 (IGROV; 48 hours exposure, SRB): 3.72 nM
- IC (TGI) (IGROV; 48 hours exposure, SRB): 7.21 nM
- CC50 (IGROV; read-out: LC50, IGROV, 48 hours exposure, SRB): 27.1 nM
- GI50 (HT29; HT29, 48 hours exposure, SRB): 61.8 nM
- IC (TGI) (HT29; HT29, 48 hours exposure, SRB): 187 nM
- CC50 (HT29; read-out: LC50, HT29, 48 hours exposure, SRB): 13000 nM
- GI50 (LOVO-DOX; [9]): 70.4 nM
- IC (TGI) (LOVO-DOX; [9]): 977 nM
- CC50 (LOVO-DOX; read-out: LC50, LOVO-DOX, 48 hours exposure, SRB): 13000 nM
- GI50 (IGROV-ET; [10]): 50.3 nM
- IC (TGI) (IGROV-ET; [10]): 103 nM
- CC50 (IGROV-ET; read-out: LC50, IGROV-ET, 48 hours exposure, SRB): 130 nM
- GI50 (LOVO; 48 hours exposure, SRB): 27.3 nM
- IC (TGI) (LOVO; 48 hours exposure, SRB): 54.6 nM
- CC50 (LOVO; read-out: LC50, LOVO, 48 hours exposure, SRB): 109 nM
- GI50 (K562; K562, 48 hours exposure, SRB): 6.15 nM
- IC (TGI) (K562; K562, 48 hours exposure, SRB): 9.92 nM
- CC50 (K562; read-out: LC50, K562, 48 hours exposure, SRB): 109 nM
- GI50 (A549; A549, 48 hours exposure, SRB, read-out: GI50): 28.4 nM
- IC (TGI) (A549; A549, 48 hours exposure, SRB, read-out: TGI): 50.7 nM
- CC50 (A549; read-out: LC50, A549, 48 hours exposure, SRB): 90.9 nM
- GI50 (LNCAP; 48 hours exposure, SRB): 6.14 nM
- IC (TGI) (LNCAP; 48 hours exposure, SRB): 9.48 nM
- CC50 (LNCAP; read-out: LC50, LNCAP, 48 hours exposure, SRB): 25.1 nM
- GI50 (SK-BR3; SK-BR3, 48 hours exposure, SRB): 11.8 nM
- IC (TGI) (SK-BR3; SK-BR3, 48 hours exposure, SRB): 32 nM
- CC50 (SK-BR3; read-out: LC50, SK-BR3, 48 hours exposure, SRB): 86.4 nM
- Liver [5]: 3.19E−07
- Skeletal [6]: 2.71E−08
- logD at 60 min (physchem [7]): > 4.4
